# Like-named read-outs stand apart in the source and are kept apart here.
# Experiments:
# M. tuberculosis InhA [1] = molecular target: T1, M. tuberculosis InhA (Mycobacterium tuberculosis, UniProt P9WGR1); assay: InhA in vitro inhibition assay; format: biochemical
# M. tuberculosis H37Rv [2] = assay: microbe, parasite or virus in culture; format: cell-based, Mycobacterium tuberculosis; details: Mycobacterium tuberculosis, H37RV; whole-cell M. tuberculosis
# [3] = system: intracellular M. tuberculosis in THP-1 cells; assay: microbe, parasite or virus in culture; format: cell-based; details: Mycobacterium tuberculosis
# in vitro [4] = format: cell-based; details: human; read-out: HepG2 cytotoxicity IC50
# Protocol: HepG2 human liver cells (ATCC HB 8065) were propagated in DMEM containing either 25 mM glucose or 10 mM galactose plus 10% vol/vol FBS, 1 mM sodium pyruvate, 2 mM Corning glutagro, 100 U/ml penicillin, and 100 μg/ml streptomycin. The cells were seeded in 384-well plates at 1,800 cells per well and incubated in a humidified incubator at 37°C, 5% CO2. Compounds were solubilized in DMSO and assayed using a 10-point threefold serial dilution. Compounds were added 24 h post cell seeding to a final assay concentration of 1% DMSO and highest compound concentration of 100 μM. The cells were incubated for 72 h and viability measured using CellTiter-Glo reagent (Promega) and reading RLU. Growth inhibition curves were fitted using the Levenberg–Marquardt algorithm. The IC50 was defined as the compound concentration that produced 50% of the inhibitory response against HepG2 cells.
# M. tuberculosis InhA [5] = molecular target: T1, M. tuberculosis InhA; assay: biochemical; format: binding
# M. tuberculosis H37Rv [6] = assay: Kill kinetics under replicating conditions; format: cell-based, Mycobacterium tuberculosis
# [7] = system: M. tuberculosis Erdman TMCC 107; assay: microbe, parasite or virus in culture; format: cell-based; details: Mycobacterium tuberculosis, read-out: potency (MIC) against M. tuberculosis Erdman TMCC 107
# M. tuberculosis Erdman [8] = format: in vivo, Mycobacterium tuberculosis; details: for reduction in M. tuberculosis lung burdens / reduction in M. tuberculosis spleen burdens: 9-d treatment; for Mean ± SEM Log10 CFU: dose escalation study (Table S4), day 22
# M. tuberculosis Erdman [9] = format: in vivo, Mycobacterium tuberculosis; details: 100 mg/kg
# [10] = for Ratio Plasma AUC0-last / Dose / Ratio Plasma Cmax/Dose: C57Bl/6 mice
# [11] = human serum
# [12] = mouse plasma
# in vivo = details: female; for AUC(0-t): AUClast
# in vitro [13] = details: human
# [14] = BALB/c, mouse, po, 10 mg/kg, BALB/c (infected) mice, oral 10 mg/kg QD-3 wk, plasma
# [15] = BALB/c, mouse, po, 50 mg/kg, BALB/c (infected) mice, oral 50 mg/kg QD-3 wk, plasma
# [16] = C57BL/6, mouse, po, 10 mg/kg, C57Bl/6 mice, oral 10 mg/kg QD-4 days, plasma
# [17] = C57BL/6, mouse, po, 10 mg/kg, C57Bl/6 mice, oral 10 mg/kg QD-4 days, lung
# [18] = C57BL/6, mouse, po, 25 mg/kg, C57Bl/6 mice, oral 25 mg/kg QD-4 days, plasma
# [19] = C57BL/6, mouse, po, 25 mg/kg, C57Bl/6 mice, oral 25 mg/kg QD-4 days, lung
# [20] = C57BL/6, mouse, po, 50 mg/kg, C57Bl/6 mice, oral 50 mg/kg QD-4 days, plasma
# [21] = C57BL/6, mouse, po, 50 mg/kg, C57Bl/6 mice, oral 50 mg/kg QD-4 days, lung
# [22] = CD-1, mouse, iv, 5 mg/kg, CD-1 mice, IV 5 mg/kg, single dose, plasma
# [23] = CD-1, mouse, po, 10 mg/kg, CD-1 mice, oral 10 mg/kg, single dose, lung
# [24] = CD-1, mouse, po, 10 mg/kg, CD-1 mice, oral 10 mg/kg, single dose, plasma
# T1 sequence (P9WGR1 whole entry, looked up): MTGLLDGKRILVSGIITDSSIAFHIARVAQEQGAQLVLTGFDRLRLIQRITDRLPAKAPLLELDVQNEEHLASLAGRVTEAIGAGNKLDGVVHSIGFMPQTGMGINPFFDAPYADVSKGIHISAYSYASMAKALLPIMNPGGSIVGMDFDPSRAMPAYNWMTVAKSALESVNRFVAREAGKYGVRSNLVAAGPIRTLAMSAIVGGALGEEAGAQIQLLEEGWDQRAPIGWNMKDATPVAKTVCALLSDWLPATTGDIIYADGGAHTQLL
structure (smiles),measurement,setting,value
CCS(=O)(=O)N1N=Cc2ccc(Oc3ccc(C(F)(F)F)cc3/C=N/O)cc2B1O [AN12855],IC50,M. tuberculosis InhA [1],30 nM
same,IC90,M. tuberculosis H37Rv [2],90 ± 50 nM
same,IC50,[3],21 ± 3 nM
same,IC90,[3],40 ± 10 nM
same,IC50,in vitro [4],> 100000 nM
same,Kd,M. tuberculosis InhA [5]; cofactor: None,77 nM
same,N (stoichiometry of binding),M. tuberculosis InhA [5]; cofactor: None,0.58 ± 0.014
same,∆H,M. tuberculosis InhA [5]; cofactor: None,"−17,740 ± 607 cal/mol"
same,∆S,M. tuberculosis InhA [5]; cofactor: None,−27 cal/mol/deg
same,binding to InhA,M. tuberculosis InhA [5]; in the presence of NADH,unable to bind
same,bactericidal activity,M. tuberculosis H37Rv [6],concentration-dependent bactericidal activity
same,time to reach the limit of detection,"M. tuberculosis H37Rv [6]; replicating conditions, 10× the IC90",7 days
same,MIC,[7]; with 4% human serum albumin,2.3 µM
same,MIC,[7]; without human serum albumin,0.28 µM
same,reduction in M. tuberculosis lung burdens,M. tuberculosis Erdman [8]; 10 mg/kg,2.3 log10
same,reduction in M. tuberculosis spleen burdens,M. tuberculosis Erdman [8]; 10 mg/kg,2.1 log10
same,reduction in M. tuberculosis lung burdens,M. tuberculosis Erdman [8]; 25 mg/kg,2.7 log10
same,reduction in M. tuberculosis spleen burdens,M. tuberculosis Erdman [8]; 25 mg/kg,3.2 log10
same,reduction in M. tuberculosis lung burdens,M. tuberculosis Erdman [8]; 50 mg/kg,3.7 log10
same,reduction in M. tuberculosis spleen burdens,M. tuberculosis Erdman [8]; 50 mg/kg,3.6 log10
same,Mean ± SEM Log10 CFU,"M. tuberculosis Erdman [8]; lung, 50 mg/kg",5.8 ± 0.05 Log10 CFU
same,Mean ± SEM Log10 CFU,"M. tuberculosis Erdman [8]; lung, 100 mg/kg",5.0 ± 0.13 Log10 CFU
same,Mean ± SEM Log10 CFU,"M. tuberculosis Erdman [8]; lung, 200 mg/kg",5.6 ± 0.06 Log10 CFU
same,Mean ± SEM Log10 CFU,"M. tuberculosis Erdman [8]; organ Lung, 50 mg/kg",2.5 ± 0.24 Log10 CFU
same,Mean ± SEM Log10 CFU,"M. tuberculosis Erdman [8]; organ Lung, 100 mg/kg",2.5 ± 0.05 Log10 CFU
same,Mean ± SEM Log10 CFU,"M. tuberculosis Erdman [8]; organ Lung, 200 mg/kg",3.0 ± 0.10 Log10 CFU
same,reduction in lung burdens,M. tuberculosis Erdman [9]; 2 weeks of treatment,0.47 log10 CFU
same,reduction in lung burdens,M. tuberculosis Erdman [9]; 4 weeks of treatment,0.81 log10 CFU
same,reduction in lung burdens,M. tuberculosis Erdman [9]; 8 weeks of treatment,1.73 log10 CFU
same,reduction in spleens,M. tuberculosis Erdman [9]; 8 weeks of treatment,more than three log10 reductions
same,Ratio Plasma AUC0-last / Dose,[10]; oral 10 mg/kg QD-4 days,1.8
same,Ratio Plasma Cmax/Dose,[10]; oral 10 mg/kg QD-4 days,0.58
same,Ratio Plasma AUC0-last / Dose,[10]; oral 25 mg/kg QD-4 days,1.9
same,Ratio Plasma Cmax/Dose,[10]; oral 25 mg/kg QD-4 days,0.5
same,Ratio Plasma AUC0-last / Dose,[10]; oral 50 mg/kg QD-4 days,1.6
same,Ratio Plasma Cmax/Dose,[10]; oral 50 mg/kg QD-4 days,0.3
same,total lung exposure lower than plasma AUC,"[10]; CD-1 mice, oral 10 mg/kg",33%
same,protein bound,[11],88%
same,protein bound,[12],98.5%
same,AUC(0-inf),"in vivo; BALB/c, mouse, po, 10 mg/kg",29000 ng·h/mL
same,half-life,"in vivo; BALB/c, mouse, po, 10 mg/kg",3.04 h
same,AUC(0-t),in vivo; [14],28900 ng·h/mL
same,Cmax,in vivo; [14],8360 ng/mL
same,Tmax,in vivo; [14],0.5 h
same,AUC(0-inf),"in vivo; BALB/c, mouse, po, 50 mg/kg",192000 ng·h/mL
same,half-life,"in vivo; BALB/c, mouse, po, 50 mg/kg",2.4 h
same,AUC(0-t),in vivo; [15],192000 ng·h/mL
same,Cmax,in vivo; [15],61600 ng/mL
same,Tmax,in vivo; [15],0.5 h
same,AUC(0-inf),"in vivo; C57BL/6, mouse, po, 10 mg/kg",19700 ng·h/mL
same,half-life,"in vivo; C57BL/6, mouse, po, 10 mg/kg",2.5 h
same,AUC(0-t),in vivo; [16],17600 ng·h/mL
same,Cmax,in vivo; [17],584 ng/mL
same,Cmax,in vivo; [16],5790 ng/mL
same,Kp,"in vivo; C57BL/6, mouse, po, 10 mg/kg, Ratio (Lung / Plasma) @ 5 hr, C57Bl/6 mice, oral 10 mg/kg QD-4 days",0.39
same,Kp,"in vivo; C57BL/6, mouse, po, 10 mg/kg, Ratio (Lung / Plasma) @ 8 hr, C57Bl/6 mice, oral 10 mg/kg QD-4 days",0.51
same,Tmax,in vivo; [17],5 h
same,Tmax,in vivo; [16],0.5 h
same,AUC(0-inf),"in vivo; C57BL/6, mouse, po, 25 mg/kg",59000 ng·h/mL
same,half-life,"in vivo; C57BL/6, mouse, po, 25 mg/kg",3.52 h
same,AUC(0-t),in vivo; [18],46800 ng·h/mL
same,Cmax,in vivo; [19],1900 ng/mL
same,Cmax,in vivo; [18],12600 ng/mL
same,Kp,"in vivo; C57BL/6, mouse, po, 25 mg/kg, Ratio (Lung / Plasma) @ 5 hr, C57Bl/6 mice, oral 25 mg/kg QD-4 days",0.48
same,Kp,"in vivo; C57BL/6, mouse, po, 25 mg/kg, Ratio (Lung / Plasma) @ 8 hr, C57Bl/6 mice, oral 25 mg/kg QD-4 days",0.49
same,Tmax,in vivo; [19],5 h
same,Tmax,in vivo; [18],0.5 h
same,AUC(0-inf),"in vivo; C57BL/6, mouse, po, 50 mg/kg",109000 ng·h/mL
same,half-life,"in vivo; C57BL/6, mouse, po, 50 mg/kg",3.76 h
same,AUC(0-t),in vivo; [20],82400 ng·h/mL
same,Cmax,in vivo; [21],3500 ng/mL
same,Cmax,in vivo; [20],14900 ng/mL
same,Kp,"in vivo; C57BL/6, mouse, po, 50 mg/kg, Ratio (Lung / Plasma) @ 5 hr, C57Bl/6 mice, oral 50 mg/kg QD-4 days",0.36
same,Kp,"in vivo; C57BL/6, mouse, po, 50 mg/kg, Ratio (Lung / Plasma) @ 8 hr, C57Bl/6 mice, oral 50 mg/kg QD-4 days",0.47
same,Tmax,in vivo; [21],5 h
same,Tmax,in vivo; [20],0.5 h
same,half-life,"in vivo; CD-1, mouse",3.5 h
same,AUC(0-inf),"in vivo; CD-1, mouse, iv, 5 mg/kg",14400 ng·h/mL
same,MRT inf,"in vivo; CD-1, mouse, iv, 5 mg/kg",3.64 h
same,Vd,"in vivo; CD-1, mouse, iv, 5 mg/kg",1.27 L/kg
same,clearance,"in vivo; CD-1, mouse, iv, 5 mg/kg",5.8 mL/min/kg
same,half-life,"in vivo; CD-1, mouse, iv, 5 mg/kg",3.46 h
same,AUC(0-t),in vivo; [22],14300 ng·h/mL
same,Cmax,in vivo; [22],6320 ng/mL
same,AUC(0-inf),"in vivo; CD-1, mouse, po, 10 mg/kg",15500 ng·h/mL
same,bioavailability,"in vivo; CD-1, mouse, po, 10 mg/kg",53%
same,half-life,"in vivo; CD-1, mouse, po, 10 mg/kg",3.27 h
same,AUC(0-t),in vivo; [23],10400 ng·h/mL
same,AUC(0-t),in vivo; [24],15400 ng·h/mL
same,Cmax,in vivo; [23],1020 ng/mL
same,Cmax,in vivo; [24],1740 ng/mL
same,Tmax,in vivo; [23],4 h
same,Tmax,in vivo; [24],0.5 h
same,IC50,in vitro [13],> 50000 nM
